Assay: Maxima of UV-A and UV-B absorption of quinoxaline derivatives in 2-propanol
Format: physicochemical
Conditions: 1 mg of substance per 100 ml of solvent; for UV-A (400 320 nm) Max. abs.: absorbance at UV-A maximum; for UV-A (400 320 nm) λ [nm]: wavelength of UV-A maximum
Procedure: The measurement was carried out in 2-propanol at a concentration of 1 mg of substance per 100 ml of solvent.

Compound | UV-A (400 320 nm) Max. abs. | UV-A (400 320 nm) λ [nm]
O=C(c1ccccc1)c1ccccc1Nc1cnc2ccccc2n1 | 0.424 | 395.4 nm
Nc1nc2ccccc2nc1NC(=O)c1cc(C(F)(F)F)cc(C(F)(F)F)c1 | 0.4130 | 354.0 nm

Source: US20030207886A1, “Preparation containing quinoxaline derivatives” (priority 2000, published 2003)
